According to article PMC8961568 (Biomolecules, 2022):

Molecular target: T1, HQDS.b. (Streptomyces bingchenggensis, UniProt D7BW96)
T1 construct: gene SBI_08688; His8-TEV tagged (pET28b), E. coli BL21(DE3), Ni-NTA purified
T1 sequence (D7BW96 1-278): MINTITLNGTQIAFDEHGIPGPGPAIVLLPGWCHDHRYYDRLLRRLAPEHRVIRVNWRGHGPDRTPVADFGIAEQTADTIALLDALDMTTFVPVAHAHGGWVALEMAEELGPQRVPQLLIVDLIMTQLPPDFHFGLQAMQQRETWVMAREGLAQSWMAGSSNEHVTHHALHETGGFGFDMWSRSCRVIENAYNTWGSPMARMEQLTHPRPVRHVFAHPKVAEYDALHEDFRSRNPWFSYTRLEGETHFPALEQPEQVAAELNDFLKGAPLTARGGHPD
Test: spectrophotometric PQS consumption at […] nm
Assay type: biochemical
Settings: 50 mM Tris, 2 mM EDTA, 10% PEG 1500, pH 8.0, 30 °C

SMILES: CCCCCCCc1[nH]c2ccccc2c(=O)c1O [PQS, 2-heptyl-3-hydroxy-4(1H)-quinolone]
- KM: HQDS.b., which exhibits the lowest KM towards PQS among the enzymes tested (Table S1)
